# Measurements from article PMC8658889, “Seriniquinones as Therapeutic Leads for Treatment of BRAF and NRAS Mutant Melanomas” (Molecules, 2021).
# Tests used:
# 501mel = test: MTT cytotoxicity assay; type: cell-based, Human
# Text: (§1) Human cell lines were used throughout this program. SK-MEL-19 (melanoma BRAF^V600E, NRAS^WT), SK-MEL-28 (melanoma BRAF^V600E, NRAS^WT), SK-MEL-147 (melanoma BRAF^WT, NRAS^Q61R), MRC-5 (fibroblasts), and primary fibroblast (FDH) were kindly provided by Professor Glaucia Santelli (University of São Paulo, Brazil). MCF7 (breast adenocarcinoma, ATCC HTB-22), and HCT-116 (colorectal carcinoma, ATCC 247) cells were obtained from American Type Culture Collection (ATCC) and deposited in the Cell Bank of Rio de Janeiro, Brazil. WM293A (metastatic melanoma BRAF^V600D, NRAS^WT), 501mel (metastatic melanoma BRAF^V600E; NRAS^G12D), and MM200 (melanoma BRAF^V600E, NRAS^WT) were kindly provided by Professor Sharon Prince, University of Cape Town, South Africa. All human melanoma and breast cell lines were cultivated with Dulbecco’s Modified Eagle Medium: Nutrient Mixture F-12 (Thermo Fisher Scientific, San Jose, CA, USA). MM200 and HCT-116 were maintained with Roswell Park Memorial Institute (RPMI) medium (Thermo Fisher Scientific, San Jose, CA, USA). Unless stated otherwise, media was supplemented with 10% fetal bovine serum (FBS) and 1% penicillin-streptomycin (Thermo Fisher Scientific, San Jose, CA, USA). Cells were incubated with 5% CO2 at 37 °C. When required, cells were detached from flask using trypsin-EDTA 0.05% (Thermo Fisher Scientific, San Jose, CA, USA).
# (§2) Cytotoxic activity was evaluated by the transformation of 3-(4,5-dimethylthiazol-2-yl)-2,5-diphenyltetrazolium bromide (MTT; Thermo Fisher Scientific, San Jose, CA, USA) into formazan by viable cells. Cells were plated in a 96-well plate (1 × 10^4 cells/well) and, 24 h later, exposed to serial dilutions of the test compounds (from 0.00032 to 5.0 µM) for 24, 48, and 72 h. For each analysis, negative controls received 0.5% DMSO and positive control was delivered by doxorubicin (DOX; 0.05 to 10.0 µM). At the end of the incubation periods, the medium was replaced with fresh medium containing 0.5 mg/mL of MTT and supernatant was removed 3 h later. The plates were dried at 50 °C for 30 min and formazan was solubilized in DMSO (150 µL/well) for the absorbance measure at 570 nm on a plate reader (Thermo Fisher Scientific, San Jose, CA, USA). IC50 values (half-maximal inhibitory concentration) along with 95% CI (confidence intervals) were calculated by non-linear regression using GraphPad Prism 8.0 software (GraphPad Software, Inc., San Diego, CA, USA).
# FDH = test: MTT cytotoxicity assay; type: cell-based, Human; conditions: Homo sapiens, Fibroblast, 72 h, FDH primary fibroblasts, 72 h treatment
# Text: as §1, §2
# HCT-116 = test: MTT cytotoxicity assay; type: cell-based, Human
# Text: as §1, §2
# MCF7 = test: MTT cytotoxicity assay; type: cell-based, Human
# Text: as §1, §2
# MM200 = test: MTT cytotoxicity assay; type: cell-based, Human
# Text: as §1, §2
# SK-MEL-147 = test: MTT cytotoxicity assay; type: cell-based, Human
# Text: as §1, §2
# SK-MEL-19 = test: MTT cytotoxicity assay; type: cell-based, Human
# Text: as §1, §2
# SK-MEL-28 = test: MTT cytotoxicity assay; type: cell-based, Human
# Text: as §1, §2
# WM293A = test: MTT cytotoxicity assay; type: cell-based, Human
# Text: as §1, §2
# melanoma cells = test: MTT cytotoxicity assay, melanoma panel; type: cell-based, Human; conditions: SK-Mel cells versus non-tumor cell lines
# Text: as §1, §2
# MRC-5 = test: MTT cytotoxicity assay; conditions: Homo sapiens, MRC5, 72 h, MRC-5 non-tumor fibroblasts, 72 h treatment, MTT
structure (smiles),measurement,setting,value
N[C@H]1CCN(C(=O)CCc2ccc3c(=O)c4sc5c(=O)c6ccccc6c(=O)c5c4c(=O)c3c2)C1 [SQ5],Selectivity Index (SI),"501mel; 501mel versus FDH, 72-h IC50 ratio",0.5
same,Selectivity Index (SI),"501mel; 501mel versus MRC-5, 72-h IC50 ratio",0.3
same,IC50,"501mel; Homo sapiens, 501mel, 72 h treatment, MTT",1710 nM
same,IC50,FDH,930 nM
same,Selectivity Index (SI),"HCT-116; HCT-116 versus FDH, 72-h IC50 ratio",4.2
same,Selectivity Index (SI),"HCT-116; HCT-116 versus MRC-5, 72-h IC50 ratio",2.5
same,IC50,"HCT-116; Homo sapiens, HCT-116, 72 h treatment, MTT",220 nM
same,IC50,"MCF7; Homo sapiens, MCF7, 72 h treatment, MTT",490 nM
same,Selectivity Index (SI),"MCF7; MCF7 versus FDH, 72-h IC50 ratio",1.9
same,Selectivity Index (SI),"MCF7; MCF7 versus MRC-5, 72-h IC50 ratio",1.1
same,IC50,"MM200; Homo sapiens, 72 h, MM200, 72 h treatment, MTT",300 nM
same,Selectivity Index (SI),"MM200; MM200 versus FDH, 72-h IC50 ratio",3.1
same,Selectivity Index (SI),"MM200; MM200 versus MRC-5, 72-h IC50 ratio",1.9
same,IC50,"SK-MEL-147; Homo sapiens, SK-MEL-147, 72 h, SK-MEL-147, 72 h treatment, MTT",70 nM
same,Selectivity Index (SI),"SK-MEL-147; SK-MEL-147 versus FDH, 72-h IC50 ratio",13.3
same,Selectivity Index (SI),"SK-MEL-147; SK-MEL-147 versus MRC-5, 72-h IC50 ratio",8.0
same,IC50,"SK-MEL-19; Homo sapiens, SK-MEL19, SK-MEL-19, 72 h treatment, MTT",40 nM
same,Selectivity Index (SI),"SK-MEL-19; SK-MEL-19 versus FDH, 72-h IC50 ratio",23.3
same,Selectivity Index (SI),"SK-MEL-19; SK-MEL-19 versus MRC-5, 72-h IC50 ratio",14.0
same,IC50,"SK-MEL-28; Homo sapiens, SK-MEL-28, 72 h, SK-MEL-28, 72 h treatment, MTT",150 nM
same,Selectivity Index (SI),"SK-MEL-28; SK-MEL-28 versus FDH, 72-h IC50 ratio",6.2
same,Selectivity Index (SI),"SK-MEL-28; SK-MEL-28 versus MRC-5, 72-h IC50 ratio",3.7
same,IC50,"WM293A; Homo sapiens, WM293A, 72 h treatment, MTT",1650 nM
same,Selectivity Index (SI),"WM293A; WM293A versus FDH, 72-h IC50 ratio",0.6
same,Selectivity Index (SI),"WM293A; WM293A versus MRC-5, 72-h IC50 ratio",0.3
same,selectivity indices to SK-Mel cells in relation to non-tumor cell lines,melanoma cells,≥ twofold
same,IC50,MRC-5,560 nM
